Converted amounts (≈) assume the structure as drawn. The source made the active and inactive calls. The rule behind the calls is not given here.
Key:
Escherichia coli [1] = assay: Antibacterial activity against tolC deficient Escherichia coli 7623; type: functional
Escherichia coli [2] = assay: Antibacterial activity against tolC deficient Escherichia coli Top10 harboring GyrB E793K mutant; type: functional
DNA gyrase = DNA gyrase (Escherichia coli, UniProt P0AES4+P0AES6); assay: Inhibition of Escherichia coli his-tagged DNA gyrase supercoiling activity using pBR322 DNA in presence of ATP incubated for 1 hr by H19 dye based high throughput DNA gyrase assay; type: protein-complex assay
[3] = Cytotoxicity against mouse L5178Y cells (TK +/-) assessed as reduction in cell viability incubated for 72 hrs by Cell Titer-Glo assay
Escherichia coli [4] = assay: Antibacterial activity against Escherichia coli 7623; type: functional
Acinetobacter baumannii = assay: Antibacterial activity against Acinetobacter baumannii BM4454; type: functional
Klebsiella pneumoniae = assay: Antibacterial activity against Klebsiella pneumoniae 1161486; type: functional
Escherichia coli [5] = assay: Antibacterial activity against tolC deficient Escherichia coli Top10; type: functional
[6] = target: Sodium channel protein type 5 subunit alpha (Homo sapiens, UniProt Q14524); assay: Inhibition of human NaV1.5 expressed in HEK293 cells assessed as decrease in sodium current amplitude at -120 mV holding potential by Qpatch assay; type: ADME, cell-based
Escherichia coli [7] = assay: Inhibition of Escherichia coli DNA topoisomerase 4 assessed as induction of enzyme-mediated DNA cleavage breaks
[8] = Inhibition of Escherichia coli DNA topoisomerase 4 using interlinked kDNA as substrate after 30 mins by ethidium bromide staining-based agarose gel electrophoresis method
Pseudomonas aeruginosa = assay: Antibacterial activity against Pseudomonas aeruginosa; type: functional
[9] = target: DNA gyrase (Klebsiella pneumoniae) (UniProt W1DID1+A0A080SQT2); assay: Inhibition of Klebsiella pneumoniae DNA gyrase assessed as increase in single and double strand DNA cleavage products; type: protein-complex assay
[10] = target: DNA topoisomerase 2-alpha (Homo sapiens, UniProt P11388); assay: Inhibition of human DNA topoisomerase 2 alpha using interlinked kDNA as substrate after 30 mins by ethidium bromide staining-based agarose gel electrophoresis method
Sequence of DNA topoisomerase 2-alpha (P11388 whole entry): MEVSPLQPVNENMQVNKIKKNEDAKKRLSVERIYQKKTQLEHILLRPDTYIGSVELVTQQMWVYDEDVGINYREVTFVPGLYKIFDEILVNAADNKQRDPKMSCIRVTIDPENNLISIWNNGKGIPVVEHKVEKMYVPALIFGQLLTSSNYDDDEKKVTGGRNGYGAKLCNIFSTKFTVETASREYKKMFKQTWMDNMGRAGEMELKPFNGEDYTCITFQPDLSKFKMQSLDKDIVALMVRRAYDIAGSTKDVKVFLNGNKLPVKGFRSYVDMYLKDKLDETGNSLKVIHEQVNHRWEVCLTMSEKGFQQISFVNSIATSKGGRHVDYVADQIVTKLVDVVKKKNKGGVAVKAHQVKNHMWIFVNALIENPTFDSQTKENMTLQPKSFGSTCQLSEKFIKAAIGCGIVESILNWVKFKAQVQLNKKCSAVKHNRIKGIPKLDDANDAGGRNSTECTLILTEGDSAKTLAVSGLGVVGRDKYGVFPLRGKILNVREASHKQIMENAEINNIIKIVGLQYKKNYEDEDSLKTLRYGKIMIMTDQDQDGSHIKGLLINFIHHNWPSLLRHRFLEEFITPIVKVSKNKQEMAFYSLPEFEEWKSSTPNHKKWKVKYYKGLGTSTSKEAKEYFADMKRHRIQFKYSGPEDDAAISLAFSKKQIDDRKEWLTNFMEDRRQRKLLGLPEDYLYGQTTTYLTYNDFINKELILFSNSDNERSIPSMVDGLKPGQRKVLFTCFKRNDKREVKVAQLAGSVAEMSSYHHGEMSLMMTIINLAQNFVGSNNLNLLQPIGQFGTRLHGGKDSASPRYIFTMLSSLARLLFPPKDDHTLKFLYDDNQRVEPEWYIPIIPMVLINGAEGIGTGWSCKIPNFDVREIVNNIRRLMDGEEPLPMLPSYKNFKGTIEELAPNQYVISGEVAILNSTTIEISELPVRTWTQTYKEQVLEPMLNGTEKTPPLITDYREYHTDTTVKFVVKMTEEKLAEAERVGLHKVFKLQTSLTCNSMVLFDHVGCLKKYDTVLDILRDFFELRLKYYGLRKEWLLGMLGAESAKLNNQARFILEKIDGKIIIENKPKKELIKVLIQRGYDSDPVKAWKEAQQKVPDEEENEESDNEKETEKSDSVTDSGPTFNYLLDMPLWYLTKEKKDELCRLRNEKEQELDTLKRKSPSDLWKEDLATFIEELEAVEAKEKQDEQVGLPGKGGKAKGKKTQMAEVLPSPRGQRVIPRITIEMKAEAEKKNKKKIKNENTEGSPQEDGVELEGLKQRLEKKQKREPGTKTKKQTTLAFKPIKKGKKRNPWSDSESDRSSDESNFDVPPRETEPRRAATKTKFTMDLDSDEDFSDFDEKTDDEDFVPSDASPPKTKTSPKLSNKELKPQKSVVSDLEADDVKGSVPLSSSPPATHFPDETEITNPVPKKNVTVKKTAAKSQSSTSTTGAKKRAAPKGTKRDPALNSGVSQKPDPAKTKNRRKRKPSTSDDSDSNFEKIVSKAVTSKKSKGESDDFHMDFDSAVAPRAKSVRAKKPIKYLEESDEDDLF

Sequence of Sodium channel protein type 5 subunit alpha (Q14524 whole entry): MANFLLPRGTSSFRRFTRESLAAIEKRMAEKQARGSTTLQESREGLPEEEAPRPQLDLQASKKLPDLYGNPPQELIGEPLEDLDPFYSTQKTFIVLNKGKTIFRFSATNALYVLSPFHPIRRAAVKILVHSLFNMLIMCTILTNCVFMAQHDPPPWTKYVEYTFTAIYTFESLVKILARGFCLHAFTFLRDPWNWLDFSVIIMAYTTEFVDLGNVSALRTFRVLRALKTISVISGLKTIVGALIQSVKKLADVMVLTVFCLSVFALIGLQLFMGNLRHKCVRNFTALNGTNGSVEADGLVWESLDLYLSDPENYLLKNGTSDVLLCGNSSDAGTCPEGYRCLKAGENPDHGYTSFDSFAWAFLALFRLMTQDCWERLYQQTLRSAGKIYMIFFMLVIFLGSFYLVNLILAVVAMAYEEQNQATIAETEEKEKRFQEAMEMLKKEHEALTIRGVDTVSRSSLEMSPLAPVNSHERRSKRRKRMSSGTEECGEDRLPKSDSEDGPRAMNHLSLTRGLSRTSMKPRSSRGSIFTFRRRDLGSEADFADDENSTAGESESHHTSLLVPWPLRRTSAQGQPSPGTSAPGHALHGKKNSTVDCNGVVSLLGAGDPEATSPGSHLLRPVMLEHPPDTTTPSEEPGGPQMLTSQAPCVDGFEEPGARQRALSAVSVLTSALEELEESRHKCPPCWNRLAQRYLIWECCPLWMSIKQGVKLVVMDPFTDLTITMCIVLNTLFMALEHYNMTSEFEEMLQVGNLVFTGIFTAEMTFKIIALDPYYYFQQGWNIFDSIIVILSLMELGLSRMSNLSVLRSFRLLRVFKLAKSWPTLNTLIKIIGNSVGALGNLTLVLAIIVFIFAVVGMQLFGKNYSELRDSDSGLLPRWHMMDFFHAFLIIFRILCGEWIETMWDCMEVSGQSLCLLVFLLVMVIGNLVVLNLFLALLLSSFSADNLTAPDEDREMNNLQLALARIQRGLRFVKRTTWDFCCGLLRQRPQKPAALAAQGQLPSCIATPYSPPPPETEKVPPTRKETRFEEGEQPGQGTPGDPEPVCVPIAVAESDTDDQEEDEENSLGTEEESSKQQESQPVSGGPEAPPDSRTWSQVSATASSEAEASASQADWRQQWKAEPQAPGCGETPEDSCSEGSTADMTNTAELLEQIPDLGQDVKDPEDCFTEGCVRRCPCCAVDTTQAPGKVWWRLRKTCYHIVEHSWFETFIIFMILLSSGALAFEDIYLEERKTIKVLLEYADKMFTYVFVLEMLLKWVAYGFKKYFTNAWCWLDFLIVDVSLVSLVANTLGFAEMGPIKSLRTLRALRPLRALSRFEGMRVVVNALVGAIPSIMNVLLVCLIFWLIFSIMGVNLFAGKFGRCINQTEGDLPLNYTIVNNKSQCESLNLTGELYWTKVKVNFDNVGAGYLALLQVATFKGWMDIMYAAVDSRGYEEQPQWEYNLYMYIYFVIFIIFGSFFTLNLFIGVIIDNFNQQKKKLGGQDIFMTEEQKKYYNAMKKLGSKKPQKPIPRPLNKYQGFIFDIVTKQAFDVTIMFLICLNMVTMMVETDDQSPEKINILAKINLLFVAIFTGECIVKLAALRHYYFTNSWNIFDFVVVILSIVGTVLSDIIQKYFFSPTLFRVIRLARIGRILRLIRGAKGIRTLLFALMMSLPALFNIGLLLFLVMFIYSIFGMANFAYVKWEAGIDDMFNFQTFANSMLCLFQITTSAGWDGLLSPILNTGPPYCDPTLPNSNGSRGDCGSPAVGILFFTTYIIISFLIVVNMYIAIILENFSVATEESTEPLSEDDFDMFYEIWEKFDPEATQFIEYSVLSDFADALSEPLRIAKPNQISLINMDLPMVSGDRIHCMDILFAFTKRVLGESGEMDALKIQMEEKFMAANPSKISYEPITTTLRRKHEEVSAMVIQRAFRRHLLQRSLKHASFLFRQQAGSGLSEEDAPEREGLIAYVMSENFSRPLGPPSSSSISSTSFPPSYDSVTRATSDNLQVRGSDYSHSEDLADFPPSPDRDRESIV

In the case of `Cn1nc(NC(CN)c2ccccc2)c2cc(-c3ccccc3Cl)ccc21` (configuration not stated), the MIC (Escherichia coli [1]) is reported as 4 µg/mL (≈ 10.6 µM), the MIC (Escherichia coli [2]) is reported as 4 µg/mL (≈ 10.6 µM) and the IC50 (DNA gyrase) is reported as 7.9 µM. For the same compound, the CC50 at 72 h ([3]; L5178Y cells (TK +/-)) was 5 µg/mL (≈ 13.3 µM), the MIC (Escherichia coli [4]) was greater than 128 µg/mL and the MIC (Acinetobacter baumannii) was 128 µg/mL (≈ 340 µM). The MIC (Klebsiella pneumoniae) was greater than 128 µg/mL and the MIC (Escherichia coli [5]) was 4 µg/mL (≈ 10.6 µM).
In the case of `NC[C@H](Oc1noc2ncc(-c3ccccc3Cl)cc12)c1ccccc1`, the MIC (Escherichia coli [1]) is reported as 1 µg/mL (≈ 2.73 µM), the MIC (Escherichia coli [2]) is reported as 16 µg/mL (≈ 43.7 µM) and the IC50 (DNA gyrase) is reported as 0.5 µM. It also gave a CC50 at 72 h ([3]; L5178Y cells (TK +/-)) of 20 µg/mL (≈ 54.7 µM), an MIC (Escherichia coli [4]) of 64 µg/mL (≈ 175 µM) and an MIC (Acinetobacter baumannii) of 64 µg/mL (≈ 175 µM). For the same compound, the IC50 [6] was 24 µM and the MIC (Escherichia coli [5]) was 1 µg/mL (≈ 2.73 µM).
Work on `NC[C@H](Oc1noc2ccc(-c3ccccc3Cl)nc12)c1ccccc1` yielded an MIC (Escherichia coli [1]) of 4 µg/mL (≈ 10.9 µM), an MIC (Escherichia coli [2]) of 16 µg/mL (≈ 43.7 µM) and an IC50 (DNA gyrase) of 1.6 µM. It also gave a CC50 at 72 h ([3]; l5178y) of 5 µg/mL (≈ 13.7 µM), an MIC (Escherichia coli [4]) greater than 128 µg/mL and an MIC (Acinetobacter baumannii) greater than 128 µg/mL. The IC50 [6] was 16 µM and the MIC (Escherichia coli [5]) was 8 µg/mL (≈ 21.9 µM).
For `NC[C@H](Oc1n[nH]c2ccc(-c3ccccc3Cl)cc12)c1ccccc1`, the MIC (Escherichia coli [1]) was 2 µg/mL (≈ 5.5 µM), the MIC (Escherichia coli [2]) was 2 µg/mL (≈ 5.5 µM) and the IC50 (DNA gyrase) was 1.6 µM. The CC50 at 72 h ([3]; L5178Y cells (TK +/-)) was 3 µg/mL (≈ 8.25 µM), the MIC (Escherichia coli [4]) was 32 µg/mL (≈ 87.9 µM) and the MIC (Acinetobacter baumannii) was 32 µg/mL (≈ 87.9 µM). For the same compound, the MIC (Klebsiella pneumoniae) was 32 µg/mL (≈ 87.9 µM) and the MIC (Escherichia coli [5]) was 2 µg/mL (≈ 5.5 µM).
`NC[C@H](Nc1nccc2ccc(-c3ccccc3Cl)cc12)c1ccccc1` gave an MIC (Escherichia coli [1]) of 2 µg/mL (≈ 5.35 µM), an MIC (Escherichia coli [2]) of 2 µg/mL (≈ 5.35 µM) and an IC50 (DNA gyrase) of 10 µM. The CC50 at 72 h ([3]; L5178Y cells (TK +/-)) was 3 µg/mL (≈ 8.02 µM), the MIC (Escherichia coli [4]) was 64 µg/mL (≈ 171 µM) and the MIC (Acinetobacter baumannii) was 32 µg/mL (≈ 85.6 µM). It also gave an MIC (Klebsiella pneumoniae) of 32 µg/mL (≈ 85.6 µM) and an MIC (Escherichia coli [5]) of 2 µg/mL (≈ 5.35 µM).
For `NCC(Nc1n[nH]c2ccc(-c3ccccc3Cl)cc12)c1ccccc1` (configuration not stated), the MIC (Escherichia coli [1]) was 4 µg/mL (≈ 11 µM), the MIC (Escherichia coli [2]) was 4 µg/mL (≈ 11 µM) and the IC50 (DNA gyrase) was 3.2 µM. It also gave a CC50 at 72 h ([3]; L5178Y cells (TK +/-)) of 5 µg/mL (≈ 13.8 µM), an MIC (Escherichia coli [4]) of 128 µg/mL (≈ 353 µM) and an MIC (Acinetobacter baumannii) of 64 µg/mL (≈ 176 µM). It also gave an MIC (Klebsiella pneumoniae) of 64 µg/mL (≈ 176 µM) and an MIC (Escherichia coli [5]) of 4 µg/mL (≈ 11 µM).
Compound `NC[C@@H](c1ccccc1)n1cnc2c(-c3ccccc3Cl)csc2c1=O` has an MIC (Escherichia coli [1]) of 2 to 4 µg/mL (≈ 5.24 to 10.5 µM), an MIC (Escherichia coli [2]) of 16 µg/mL (≈ 41.9 µM) and an IC50 (DNA gyrase) of 2 µM. It also gave a CC50 at 72 h ([3]; L5178Y cells (TK +/-)) of 16 µg/mL (≈ 41.9 µM), an MIC (Escherichia coli [4]) greater than 128 µg/mL and an MIC (Acinetobacter baumannii) greater than 128 µg/mL. For the same compound, the MIC (Klebsiella pneumoniae) was greater than 128 µg/mL and the MIC (Escherichia coli [5]) was 2 µg/mL (≈ 5.24 µM).
With `Cc1sc(-c2ccccc2Cl)cc1C(=O)N[C@@H](CN)c1ccccc1` the MIC (Escherichia coli [1]) was no more than 0.125 µg/mL, the MIC (Escherichia coli [2]) was 4 µg/mL (≈ 10.8 µM) and the IC50 (DNA gyrase) was 0.04 µM. The CC50 at 72 h ([3]; l5178y) was 5 µg/mL (≈ 13.5 µM), the MIC (Escherichia coli [4]) was 8 µg/mL (≈ 21.6 µM) and the MIC (Acinetobacter baumannii) was 4 µg/mL (≈ 10.8 µM). It also gave an IC50 [6] of 13 µM, an MIC (Klebsiella pneumoniae) of 32 µg/mL (≈ 86.3 µM) and an MIC (Escherichia coli [5]) of no more than 0.125 µg/mL.
With `Cn1nc(O[C@@H](CN)c2ccccc2)c2cc(-c3ccccc3Cl)ccc21` the MIC (Escherichia coli [1]) was 2 µg/mL (≈ 5.29 µM), the MIC (Escherichia coli [2]) was 2 µg/mL (≈ 5.29 µM) and the IC50 (DNA gyrase) was 5 µM. It also gave an MIC (Escherichia coli [4]) greater than 128 µg/mL, an MIC (Acinetobacter baumannii) of 64 µg/mL (≈ 169 µM) and an MIC (Klebsiella pneumoniae) greater than 128 µg/mL. For the same compound, the MIC (Escherichia coli [5]) was 2 µg/mL (≈ 5.29 µM).
For `NC[C@H](Oc1noc2ccc(-c3ccccc3Cl)cc12)c1ccccc1`, the inhibition (Escherichia coli [7]) was “Active”, the MIC (Escherichia coli [1]) was no more than 0.125 µg/mL and the IC50 [8] was 90 µM. It also gave an MIC (Escherichia coli [2]) of 2 µg/mL (≈ 5.48 µM), an IC50 (DNA gyrase) of 0.16 µM and a CC50 at 72 h ([3]; l5178y) of 10 µg/mL (≈ 27.4 µM). It also gave an MIC (Pseudomonas aeruginosa) of no less than 128 µg/mL, an MIC (Escherichia coli [4]) of 8 to 16 µg/mL (≈ 21.9 to 43.9 µM) and an MIC (Acinetobacter baumannii) of 8 µg/mL (≈ 21.9 µM). The inhibition [9] was “Active”, the IC50 [6] was 22 µM and the MIC (Klebsiella pneumoniae) was no less than 128 µg/mL. It also gave an MIC (Escherichia coli [5]) of no more than 0.125 µg/mL and an IC50 [10] of 210 µM.
With `NCC(Oc1noc2ccc(-c3ccccc3Cl)cc12)c1ccccn1` (configuration not stated) the MIC (Escherichia coli [1]) was 0.25 µg/mL (≈ 0.683 µM), the MIC (Escherichia coli [2]) was 8 µg/mL (≈ 21.9 µM) and the IC50 (DNA gyrase) was 0.5 µM. It also gave a CC50 at 72 h ([3]; L5178Y cells (TK +/-)) of 3 µg/mL (≈ 8.2 µM), an MIC (Escherichia coli [4]) of 64 µg/mL (≈ 175 µM) and an MIC (Acinetobacter baumannii) of 32 µg/mL (≈ 87.5 µM). The MIC (Escherichia coli [5]) was 0.25 µg/mL (≈ 0.683 µM).
For `N=C(N)NC[C@H](Oc1noc2ccc(-c3ccccc3Cl)cc12)c1ccccc1`, the MIC (Escherichia coli [1]) was 0.25 µg/mL (≈ 0.614 µM), the MIC (Escherichia coli [2]) was 0.5 µg/mL (≈ 1.23 µM) and the IC50 (DNA gyrase) was 0.16 µM. For the same compound, the CC50 at 72 h ([3]; l5178y) was 11 µg/mL (≈ 27 µM), the MIC (Pseudomonas aeruginosa) was 16 µg/mL (≈ 39.3 µM) and the MIC (Escherichia coli [4]) was 8 µg/mL (≈ 19.7 µM). The MIC (Acinetobacter baumannii) was 4 µg/mL (≈ 9.83 µM), the MIC (Klebsiella pneumoniae) was 16 µg/mL (≈ 39.3 µM) and the MIC (Escherichia coli [5]) was 0.25 µg/mL (≈ 0.614 µM).

— ChEMBL document CHEMBL4340534 (Bioorg Med Chem Lett, 2019)
